Broadly, the melting point is the temperature of the solid-liquid transition. In the case of `O=C(NOC1CCCCO1)c1cnc(N2CCN(S(=O)(=O)c3ccc4ccccc4c3)CC2)nc1` (stereo not given), the melting point was determined as 198 °C.
In the case of `CS(=O)(=O)c1ccc(-c2nn(Cc3ccncc3)c(=O)cc2-c2ccc(F)cc2)cc1`, the melting point was 253 to 254 °C.
Take `COCC(=O)N(CC(C)=O)c1c(C)cccc1C`: the melting point lay within 56 to 57 °C.
`Cc1cc(C)cc(Nc2ncc(-c3ccccc3)s2)c1` had a melting point of 175 to 176 °C.
The compound `CCCCCS(=O)(=O)NC(=O)CCc1cc(OC(C)C)nn1Cc1ccc(C(F)(F)F)cc1Cl` registered a melting point of 147 to 149 °C.
To `O=S(=O)(c1ccc2ccccc2c1)N1CCOc2ccc(CCCI)cc21` belongs 87 to 88 °C.
The same measure for `COc1ccc(C(=O)Nc2ccc(F)cc2)cc1NC(=S)Nc1cc(Cl)cc(Cl)c1`: 175 to 178 °C; for `CC(C)c1cc(C(C)C)c(CC(=O)NS(=O)(=O)Oc2c(C(C)C)cc(C=CC#N)cc2C(C)C)c(C(C)C)c1`: 157 to 160 °C.
`CN1CCN(c2nc3ccccc3[nH]2)CC1` had a melting point of 222 to 224 °C.
For the compound `COc1nc(C(=O)O)ccc1CN1CC1C#N` (stereo not given), the melting point was in the range of 96 to 97 °C.
Turning to `CCOC(=O)c1cc(-c2ccc(OCCO[Si](C)(C)C(C)(C)C)cc2)n(-c2ccc(OC)cc2)n1`, the melting point was in the range of 86 to 87 °C.
Turning to `O=C(c1ccncc1)[N+]1([O-])CCN(C2c3ccc(Cl)cc3OCc3cccnc32)CC1` (stereo not given), the melting point was 206 to 208 °C.
As for `CSC(=NC(=O)c1ccccc1)Nc1c(Cl)cccc1Cl`, the melting point was 127 to 129 °C.
To `O=C(O)c1cc2ccc(Cl)cc2[nH]c1=O` belongs 317 to 318 °C; to `COc1ccc(NN=C(Sc2c(C)cccc2C)C(C)=O)cc1`, 107 to 109 °C; to `CCCCCCCCc1ncc(-c2ccc(O)cc2)cn1`, 94 to 96 °C.
To `CC1CC2C(=C(Cl)C=CC2(F)n2[nH]c3c(c2=O)CCCC3)O1` (stereo not given) belongs 240 to 242 °C; to `CCCCNC(=O)ONC(=O)Cc1ccc2c(C(=O)OCC)c(N)c(C(=O)OCC)c-2cc1`, 178 to 179 °C; to `O=c1c2c(CSc3ncnc4[nH]cnc34)cccc2nc(C(F)(F)F)n1-c1ccccc1Cl`, 218 to 219 °C.
To `N#Cc1c(N2CCCN(c3ccccn3)CC2)cc[nH]c1=S` belongs 220 to 224 °C; to `O=C1C2=C(CCCC2)C(Sc2ccccc2)N1c1ccc(Cl)cc1F` (stereo not given), 86 to 87 °C.
Regarding `COC(=O)c1scc(Br)c1N`, the melting point was in the range of 58 to 60 °C.
As to `CCOC(=O)c1ccc(N2CCN(c3c(C)nc(N)nc3N)CC2)cc1`, the melting point fell in the range of 281 to 285 °C.
Compound `O=C1C(=O)N2CCCc3cccc1c32` displayed a melting point of 199 °C.
For `Fc1ccc(NC(=S)NN2CC=C(c3ccccc3)CC2)cc1`, the melting point was in the range of 192 to 194 °C.
As for `COc1cc(C#N)ccc1-c1nc2cc(Cl)c(Cl)cc2[nH]1`, the melting point was > 250 °C.
As to `CCc1nc(CCc2ccc(NC(=O)/C=C/c3cnn(C)c3-c3ccc(F)cc3)cc2)cs1`, the melting point fell in the range of 190 to 191 °C.
`CCOC(=O)c1cn(-c2ccc(F)cc2F)c2nc(N3CCNCC3)c(F)cc2c1=O` registered a melting point of 208 to 211 °C.
To `COc1cccc([C@H]2O[C@H](CC(=O)NCCCOc3ccc(CC(=O)O)cc3)C(=O)N(CC(C)(C)CO)c3ccc(Cl)cc32)c1OC` belongs 125 to 128 °C.
The same measure for `CCc1nc2c(Cl)ncnc2n1C(C1CC1)C1CC1`: 99 to 100 °C.
`CCCc1nc2c(N)nc3ccccc3c2n1CCCC(=O)OCC` registered a melting point of 154 to 156 °C.
In turn, `CCN(CC)Cc1nc(Cn2cnc3c2c(=O)n(C)c(=O)n3C)no1` displayed a melting point of 68 to 70 °C.
The compound `CC(C)(C)OC(=O)N[C@@H]1C[C@H](CO)[C@@H](O)C1` yielded a melting point of 126 to 128 °C.
`COc1cccc(CC(c2ccccc2)N(CCO)CCO)c1` (stereo not given): the melting point fell in the range of 67 to 69 °C.
In turn, `COc1nc2cc(Cl)c(Cl)c(CSCc3ccccc3)c2nc1OC` registered a melting point of 121 to 122 °C.
`COc1ccc2c(c1)/C(=C/C#N)CC2` had a melting point of 95 to 96 °C.
For the compound `Cn1ncnc1COc1nc2c(cc1-c1ccco1)nnn2-c1ccccc1F`, the melting point was in the range of 170 to 173 °C.
On to `Cc1cccc2sc(-c3ccccn3)nc(=O)c12`, for which the melting point worked out at 151 °C.
As for `CCCCCCCCCCOc1ccccc1C(N)=O`, the melting point is 58 to 59 °C.
`CN1CCC(C2c3ccccc3CCn3ncnc32)CC1` (stereo not given) displayed a melting point of 134 °C.
`N#CC(C(=O)c1ccc(Cl)cc1)c1ccncc1` (stereo not given) returned a melting point of 225 to 235 °C.
Compound `CCOc1nn(Cc2ccnc(OCc3nc(-c4ccccc4)oc3C)c2)cc1CCC(=O)O` had a melting point of 114 to 115 °C.
`CCCCCCCCCCCCCCCCCCOc1ccc(OCCCc2ccccc2)c(C(=O)N(CC(=O)OCC)CC(=O)OCC)c1` registered a melting point of 54 to 55 °C.
The compound `O=C(c1ccccc1)c1[nH]c2cc(Cl)ccc2c1NC(=O)N1CCOCC1` came in with a melting point of 168 to 170 °C.
Consider `CNC(=O)c1ccc(C(=O)O)cc1`, for which the melting point is 270 °C.
Regarding `CC(c1ccc2ccccc2c1)N(O)C(=O)NO` (stereo not given), the melting point was in the range of 148 to 150 °C.
Regarding `COc1c(CBr)cccc1CBr`, the melting point was 83.5 to 85.5 °C.
In turn, `CCOCc1nc2c(N)nc3cccnc3c2n1CC1(O)CCC1` returned a melting point of 162 to 163 °C.
Regarding `Cc1[nH]c(=O)ccc1-c1ccc2nccn2c1`, the melting point is 290 to 292 °C.
To `CCOC(=O)C(C)=NNc1ccc(Cl)cc1Cl` belongs 118 to 120 °C; to `O=C(OC1CCCCC1=O)c1cccc2ccccc12` (stereo not given), 94 to 95 °C; to `CCOc1nn(-c2ccc(C(F)(F)F)cn2)cc1CCCOc1cc(CCC(=O)O)n(C2CCCCC2)n1`, 89 to 90 °C.
For `CCCCCCOc1ccccc1C(=N)OCC`, the melting point lay within 68 to 70 °C.
`OC(c1ccc(Cl)cc1)(c1ccc(Cl)cc1)c1nccn1COCc1ccccc1` gave a melting point of 139 to 141 °C.
The same measure for `CC(=O)OCc1ccc(N)cc1`: 83 to 84 °C; for `COc1ccc(C=CCN2CCc3nc(N)sc3CC2)cc1OC`: 122 to 126 °C; for `CCOC(=O)CCC1Cc2cc(O)ccc2NC1=O` (stereo not given): 138 °C.
As to `Nc1nc(NC2Cc3ccccc3N(S(=O)(=O)c3ccc(Cl)cc3Cl)C2)c2cn[nH]c2n1` (stereo not given), the melting point was in the range of 153 to 163 °C.
In the case of `C=CCN(CC=C)c1nc(NC(=O)Cc2ccsc2)n2oc(=O)nc2n1`, the melting point lay in the range of 159 to 161 °C.
In the case of `CN1CCN(c2ncnc3oc(-c4ccc(N)cc4)c(-c4ccc(F)cc4)c23)CC1`, the melting point is 214 to 215 °C.
In turn, `CC(C)(C)OC(=O)NCC(=O)Nc1ccc2c(c1)-c1c(c(C(=O)C(C#N)C(=O)Nc3ccccc3)nn1-c1ccccc1)CS2` (stereo not given) returned a melting point of 190 to 200 °C.
Compound `COc1c(OCCOc2ccc(C(C)(C)C)cc2)ccnc1C` returned a melting point of 84 to 87 °C.
With `Cc1cccc2sc(=NC(=O)C(F)(F)F)n(N)c12`, the melting point fell in the range of 160 to 161 °C.
The compound `O=C(CCc1cccnc1)NCCCCC1CCN(C(c2ccccc2)c2ccccc2)CC1` had a melting point of 139 °C.
To `COc1cc(/C=C/CO)ccc1OCc1csc(-c2ccccc2)n1` belongs 71 to 72 °C.

Values taken from a melting point compilation (Tetko et al.; mined from patent text by program, amines drawn as free bases though some values may be those of a salt).
